Source: US9481671B2, “Glucosylceramide synthase inhibition for the treatment of collapsing glomerulopathy and other glomerular disease” (Genzyme Corporation, priority 2008, dated 2016)

Tested on: GM3
Assay: GM3 Elisa Assay (B16-FO cells)
Format: cell-based
Settings: 48 h, Table 3, 2 days with compound, read-out: IC50_uM_Mean
Protocol: B16-FO cells from ATCC (American Tissue Culture Collection) were grown in DMEM media (ATCC) with 10% Fetal Bovine Serum (Hyclone) and Pen/Step/Glutamine (Biowhittaker). 4000 cells per well were plated on collagen coated plates (BD) and allowed to attach for 6 hours in an incubator (37 degrees, 5% CO2). After 6 hours the compounds and controls were added to the wells, the plates mixed and returned to the incubator for 2 days. Day of assay the cells were fixed for 20 minutes with 1% formaldehyde and then washed with Tris Buffered Saline (TBS) 3 times, 150 μl of TBS was left in the wells and 50 μl of goat serum (Invitrogen) was added, the plates mixed and incubated for 1 hour at room temperature. The plates were flicked and the cells incubated with the monoclonal Antibody to GM3 (NeuAc) (Cosmo) for 45 minutes as room temperature. The plates were then washed 3 times with TBS, leaving 150 μl of TBS in the wells and Peroxidase AffinPure F (ab′) 2 frag Gt Anti-mouse IgM, μ Chain Specific (Jackson Immno Research) was added in 50 μl, the plates mixed and incubated for 45 minutes at room temperature. The plates were washed 3 times with TBS, flicked and blotted and 100 μl of Quantablu (Pierce) was added to the wells and incubated for 1 hour then read on a Fluorometer at Ex 325 and Em 420. The data was then analyzed using standard programs.

SMILES: Cc1noc(CCCCC(=O)N[C@H](CN2CCCC2)[C@H](O)c2ccc3c(c2)OCCO3)n1 [Compound 649]
- IC50: 3000 to 10000 nM

SMILES: O=C(CCCc1nc(C2CC2)no1)N[C@H](CN1CCCC1)[C@H](O)c1ccc2c(c1)OCCO2 [Compound 648]
- IC50: 1000 to 3000 nM
